According to patent publication US20050124618A1, “Methods of modulating angiogenesis and cancer cell proliferation” (priority 2003, published 2005):
Entries after “also recorded” stand apart in the source; their conditions may differ. Read-outs that look alike come from different tables or passages of the source.

What was measured:
U251 human glioma cells [1] = assay: [3H]thymidine incorporation in U251 cells; assay type: cell-based; conditions: for inhibition at 10 µM: Homo sapiens
Procedure: [^3H]Thymidine Incorporation Studies: Thymidine incorporation studies were performed with cells grown in 35-mm culture dishes. […] Palmitic acid and EtOH served as fatty acid and vehicle controls, respectively. At the end of the pulse, the medium was aspirated and the cells rinsed twice with cold 1× phosphate buffered saline (PBS). The rinsed cultures were fixed by exposure to cold 5% trichloracetic acid overnight at 4° C., after which fixed cells were extracted as described previously (Scholler et al., Mol. Pharmacol. 45: 944-954, 1994). A second set of non-fixed dishes was treated with 0.05% trypsin/EDTA to estimate cell numbers. [^3H]thymidine was detected by scintillation counting and expressed as dpm/10^3 cells.

U251 human glioma cells [2] = assay: Flow cytometry of cell cycle distribution in U251 cells; assay type: cell-based; conditions: 10 μM HET0016, 24 and 48 hr
Procedure: Flow Cytometry: Cells were cultured in 100-mm dishes at densities that ensured exponential growth at the time of harvest. The harvesting and processing protocols used to detect DNA by flow cytometry with propidium iodide (PI) have been described previously (Reiners et al., Carcinogenesis 20: 1561-1566, 1999). Cells were analyzed with a Becton Dickinson FACScan in the Wayne State University Flow Cytometry Core Facility, Detroit, Mich. Percentages of cells in the G0/G1, S, and G2/M stages of the cell cycle were determined with a DNA histogram-fitting program (MODFIT; Verity Software, Topsham, Me.). A minimum of 10^4 events/sample were collected.

9L rat gliosarcoma cells = assay: 9L cell proliferation assay (cell counting); assay type: cell-based
Procedure: Culture Conditions: 9L rat gliosarcoma cells were purchased from ATC (Gaithersburg, Md.) and were maintained in DMEM (Invitrogen) supplemented with 10% heat-inactivated fetal bovine serum (FBS), penicillin (10 IU/ml), streptomycin (10 μg/ml) and 10% non-essential amino acids (all purchased from Invitrogen). Cells were maintained at 37° C. in a humidified incubator containing 5% CO2. They were grown in medium containing 10% FBS, which was then replaced with serum-free medium (give type and source) where 9L cells grow exponentially.
Cell Proliferation Assays: Proliferation studies were performed with cultures plated at a density that ensured exponential growth for at least 5 days. Growth medium were generally replaced by serum free medium 24 hr after plating. […] The concentration of the ethanol added to the media never exceeded 0.1%. Cells were harvested by exposure to a solution of 0.05% Trypsin/EDTA and counted using a hemocytometer.

SAPK/JNK = assay: Western blot of phospho-SAPK/JNK in 9L cells; assay type: cell-based, rat; conditions: 10 μM HET0016; 4 hr, 24 hr, 48 hr
Procedure: They were then pelleted by centrifugation at 1,000 g for 5 min at 4° C. The cells were lysed by adding RIPA buffer [20 mM HEPES (pH 7.4), 100 mM NaCl, 1% Nonidet P-40, 0.1% SDS, 1% deoxycholic acid, 10% glycerol, 1 mM EDTA, 1 mM NaVO3, 50 mM NaF, and protease inhibitors Set 1 (Calbiochem, La Jolla, Calif.)]. The plates were then scraped and the cells were collected in a 1.5-ml centrifuge tube, followed by incubation on ice for 30 min. The cell homogenates were centrifuged for 10 min at 14,000 g and 4° C.; the pellets were discarded and the protein concentrations in the supernatant determined by bicinchoninic acid (BCA) protein assay.
Typically, 20 μg of protein obtained from the cell homogenates was separated on a 14% Tris-glycine gel (Invitrogen) and transferred to a PVDF membrane (Biotrace, Bothell, Wash.). The membranes were blocked for 1 hr at room temperature with blocking buffer [0.2% I-Block reagent (Tropix, Bedford, Mass.), 0.1% Tween-20 in 1×PBS] and then incubated with the primary antibodies in blocking buffer overnight at 4° C. Phospho-p42/p44 MAPK (T202/Y204)(20G11), and phospho-SAPK/JNK (T183/Y185) (98F2) monoclonal antibodies were purchased from Upstate (Waltham, Mass.). […] Both phospho-p44/p42MAPK and phospho-SAPK/JNK were detected using 1:1000 antibody dilutions. […]

## CCCCc1ccc(N=CNO)c(C)c1 [HET0016, N-hydroxy-N′-(4-butyl-2 methylphenyl) formamidine]
U251 human glioma cells [1]; 10 μM HET0016, approximately 48 hr
  inhibition of DNA synthesis ([3H]thymidine incorporation/uptake): 66%
U251 human glioma cells [1]; U-251, 10 μM HET0016, approximately 24 hr, read-out: inhibition of DNA synthesis ([3H]thymidine incorporation)
  inhibition at 10 µM: 50%
U251 human glioma cells [1]; U-251, 10 μM HET0016, approximately 48 hr, read-out: inhibition of DNA synthesis ([3H]thymidine incorporation/uptake)
  inhibition at 10 µM: 65%
U251 human glioma cells [2]
  effect on cell cycle distribution: arresting the cell cycle at G0/G1; also recorded: Cells containing G0/G1 DNA accumulated
9L rat gliosarcoma cells; 10 μM HET0016, 48 hrs
  reduction of proliferation of 9L cells: 60%
9L rat gliosarcoma cells; EGF 200 ng/ml + 10 μM HET0016, 24 hr
  effect on EGF-stimulated growth of 9L cells at 24 hr: prevented the effects of EGF on cells growth
9L rat gliosarcoma cells; EGF 200 ng/ml + 10 μM HET0016, 48 hr
  effect on EGF-stimulated growth of 9L cells at 48 hr: reduced the number of cells
9L rat gliosarcoma cells; EGF 200 ng/ml + HET0016
  effect on EGF-induced growth of 9L cells: almost abolished
9L rat gliosarcoma cells; HET0016 10 nM
  inhibition of 9L cell growth: some degree of inhibition of cell growth was apparent even though the difference from control was not significant
9L rat gliosarcoma cells; HET0016 100 μM
  cytotoxicity to 9L cells (cell detachment, dead cells): may have a direct cytotoxic effect
  effect on 9L cell number: dramatic reduction in cell number
9L rat gliosarcoma cells; HET0016 1 and 10 μM, both 24 and 48 hr
  reduction of 9L cell number: 30-40%
9L rat gliosarcoma cells; various concentrations of HET0016
  dose dependence of inhibition of 9L growth: decreased the proliferation of 9L cells in a dose-related manner; also recorded: produced a dose dependent inhibition
SAPK/JNK
  phosphorylation of SAPK/JNK: decreases the phosphorylation; also recorded: significantly reduced the phosphorylation; also recorded: inhibition appears to peak at 48 hr
